This experiment deals with T1, human TAS1R2-WT/TAS1R3-M110T (Homo sapiens, UniProt Q7RTX0+Q8TE23, M110T).
T1 construct: expressed in transfected cells; host or cells: HEK293T stably expressing Gα16gust44
T1 sequence (Q8TE23 20-839): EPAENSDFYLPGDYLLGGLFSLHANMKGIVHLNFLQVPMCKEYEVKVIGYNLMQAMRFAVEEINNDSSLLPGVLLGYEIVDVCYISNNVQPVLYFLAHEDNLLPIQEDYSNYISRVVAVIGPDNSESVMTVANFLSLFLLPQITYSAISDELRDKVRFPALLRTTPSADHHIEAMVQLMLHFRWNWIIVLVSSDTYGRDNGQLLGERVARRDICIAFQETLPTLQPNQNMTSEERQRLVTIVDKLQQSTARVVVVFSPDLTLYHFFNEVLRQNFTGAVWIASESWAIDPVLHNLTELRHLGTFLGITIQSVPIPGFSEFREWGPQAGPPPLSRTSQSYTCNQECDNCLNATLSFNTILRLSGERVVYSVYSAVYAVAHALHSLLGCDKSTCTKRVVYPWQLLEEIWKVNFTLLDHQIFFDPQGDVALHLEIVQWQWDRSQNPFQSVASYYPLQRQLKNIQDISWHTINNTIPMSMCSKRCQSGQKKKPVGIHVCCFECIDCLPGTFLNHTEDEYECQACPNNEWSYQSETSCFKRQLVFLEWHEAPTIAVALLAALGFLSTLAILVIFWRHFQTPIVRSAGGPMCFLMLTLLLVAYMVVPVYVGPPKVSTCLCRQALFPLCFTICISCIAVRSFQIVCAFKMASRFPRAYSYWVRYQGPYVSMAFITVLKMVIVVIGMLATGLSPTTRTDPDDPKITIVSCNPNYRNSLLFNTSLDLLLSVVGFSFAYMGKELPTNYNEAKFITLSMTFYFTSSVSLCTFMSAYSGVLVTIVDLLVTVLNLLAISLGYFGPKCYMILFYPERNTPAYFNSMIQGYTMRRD
T1 sequence (Q7RTX0 21-852 M110T): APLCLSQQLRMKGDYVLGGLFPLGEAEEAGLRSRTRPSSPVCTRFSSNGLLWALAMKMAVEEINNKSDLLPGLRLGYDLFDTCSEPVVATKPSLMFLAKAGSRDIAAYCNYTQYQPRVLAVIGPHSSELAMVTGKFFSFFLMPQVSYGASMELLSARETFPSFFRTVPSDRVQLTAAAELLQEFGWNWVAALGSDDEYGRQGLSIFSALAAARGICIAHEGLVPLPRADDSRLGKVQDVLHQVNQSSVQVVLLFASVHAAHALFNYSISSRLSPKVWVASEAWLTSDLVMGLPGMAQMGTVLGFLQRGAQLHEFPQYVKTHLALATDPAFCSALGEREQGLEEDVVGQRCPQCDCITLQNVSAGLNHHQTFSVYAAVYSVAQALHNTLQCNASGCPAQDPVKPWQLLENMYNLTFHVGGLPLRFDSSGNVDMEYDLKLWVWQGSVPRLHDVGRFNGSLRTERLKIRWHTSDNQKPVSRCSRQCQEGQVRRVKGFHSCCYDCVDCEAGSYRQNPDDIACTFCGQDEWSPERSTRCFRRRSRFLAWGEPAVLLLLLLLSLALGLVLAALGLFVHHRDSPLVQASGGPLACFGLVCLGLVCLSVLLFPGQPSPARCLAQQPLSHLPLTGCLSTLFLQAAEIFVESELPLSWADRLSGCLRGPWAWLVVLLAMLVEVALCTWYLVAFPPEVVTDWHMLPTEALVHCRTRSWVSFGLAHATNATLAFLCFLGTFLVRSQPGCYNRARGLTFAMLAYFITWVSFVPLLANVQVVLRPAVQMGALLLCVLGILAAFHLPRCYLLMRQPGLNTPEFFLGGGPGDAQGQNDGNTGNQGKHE
Briefly: Calcium mobilisation assay, TAS1R2-WT with TAS1R3 variant M110T. Type of experiment: cell-based. Conditions: for Max ΔF/F0: maximal signal amplitude. From the text:
The coding sequences for TAS1R2 and TAS1R3 were commercially synthesised, and the human codon was optimised for expression in human cells. The coding sequences of human TAS1R2 and TAS1R3 were subcloned and inserted into the mammalian expression vectors pcDNA6/myc-HisA and pcDNA4/myc-HisA (Invitrogen; Thermo Fisher Scientific; Illkirch, France) between the EcoRI and NotI restriction sites, generating the plasmids pcDNA6-TAS1R2 and pcDNA4-TAS1R3, respectively. To increase protein expression in mammalian cells, an upstream start codon was used, which was a sequence called MAX, corresponding to the QBI SP163 element also described in pcDNA4-HisMax (Invitrogen; Thermo Fisher Scientific; Illkirch, France). To measure the expression level of the receptor by immunohistochemistry, we used the FLAG sequence ([…]) in the C-terminal position, which encodes the FLAG tag epitope. SNP variants of TAS1R2 and TAS1R3 were constructed based on […], respectively, using site-directed mutagenesis (Genewiz; Leipzig, Germany).
The HEK293T cells were kindly provided by Jay P. Slack (Givaudan Flavors Corporation; Cincinnati, OH, USA). HEK293T cells stably transfected with Gα16gust44 [43, 67] were seeded in poly-D-lysine-coated clear-bottom black 96-well plates (0.35 × 10^5 cells/well) in high-glucose DMEM supplemented with 2 mM GlutaMAX, 10% dialysed foetal bovine serum with penicillin/streptomycin and G418 (400 μg/mL) at 37 °C and 6.3% CO2 in a humidified atmosphere as previously reported. […] As a negative control, HEK293T cells were mock-transfected with the empty expression vector. After a further 24 h of incubation, the HEK293T cells were washed with C1 buffer (130 mM NaCl, 5 mM KCl, 10 mM HEPES pH 7.4 and 2 mM CaCl2). The 96-well plates containing the cells were then stimulated with sweet-tasting compounds. […] Different concentration ranges were tested depending on the sweet compound injected. The Ca^2+ changes were expressed as fractional changes in fluorescent light intensity: ΔF/F = (F − F0)/F0, where F was the fluorescent light intensity at each point, and F0 was the value of emitted fluorescent light prior to stimulus application. To calculate dose–response relationships, the changes in fluorescence upon stimulus application were averaged, mock-subtracted and baseline-corrected. The dose–response data obtained were adjusted using a 4-parameter logistic equation. The half-maximal effective concentrations (EC50 values) and maximal signal amplitudes were calculated using SigmaPlot software (version 15.0) (Systat Software; San Jose, CA, USA).
For in vitro calcium mobilisation assay performed on hTAS1R2-SNPs, hTAS1R3-SNPs and mTAS1R3-I60T, 6 to 7 concentrations were tested for each sweet compound, plus buffer alone. All concentration–receptor combinations were measured in duplicate, and each experiment was repeated at least 4 times (8 wells/concentration). Results were expressed for each concentration as ΔF/F mean ± SEM and represented as dose–response curves.
(Calcium flux is commonly read through the fluorescence of an indicator in the cells.)

Like-named read-outs stand apart in the source and are kept apart here. No end group written: not given here.

This is an account of results in publication PMC11945486, “TAS1R2/TAS1R3 Single-Nucleotide Polymorphisms Affect Sweet Taste Receptor Activation by Sweeteners: The SWEET Project” (Nutrients, 2025).

With `CC1=CC(=O)NS(=O)(=O)O1` [Acesulfame K, acesulfame K], the “R1 = Variant EC50/WT EC50” value is listed as 1.7 and the “Max ΔF/F0” value was found to be 0.20 ± 0.01. Also, the EC50 (as a rule, the midpoint of the concentration-response curve) (read-out: EC50) was determined as 1060 ± 648 µM.
`O=S(=O)(O)NC1CCCCC1` [Cyclamate, cyclamate]: the EC50 (read-out: EC50) came to 2620 ± 98 µM.
As for `C[C@H](CC[C@@H](O[C@@H]1O[C@H](CO[C@@H]2O[C@H](CO)[C@@H](O)[C@H](O)[C@H]2O)[C@@H](O)[C@H](O)[C@H]1O[C@@H]1O[C@H](CO)[C@@H](O)[C@H](O)[C@H]1O)C(C)(C)O)[C@H]1CC[C@@]2(C)[C@@H]3CC=C4[C@@H](CC[C@H](O[C@@H]5O[C@H](CO[C@@H]6O[C@H](CO)[C@@H](O)[C@H](O)[C@H]6O)[C@@H](O)[C@H](O)[C@H]5O)C4(C)C)[C@]3(C)[C@H](O)C[C@]12C` [Mogroside V, mogroside V], the “R1 = Variant EC50/WT EC50” value turned out to be 3.0 and the “Max ΔF/F0” value came to 0.43 ± 0.02. For the same molecule, for the setting “read-out: EC50”, the EC50 is 94.5 ± 8.4 µM.
For the molecule `COc1ccc(CCC(=O)c2c(O)cc(O[C@@H]3O[C@H](CO)[C@@H](O)[C@H](O)[C@H]3O[C@@H]3O[C@@H](C)[C@H](O)[C@@H](O)[C@H]3O)cc2O)cc1O` [NHDC, neohesperidin dihydrochalcone], the “R1 = Variant EC50/WT EC50” value is on record as 4.0 and the “Max ΔF/F0” value amounted to 0.48 ± 0.02. Moreover, the EC50 (read-out: EC50) was found to be 203 ± 17.1 µM.
Consider `COC(=O)[C@H](Cc1ccccc1)NC(=O)[C@H](CC(=O)O)NCCC(C)(C)C` [Neotame], for which the “R1 = Variant EC50/WT EC50” value is given as 2.2 and the “Max ΔF/F0” value came to 0.19 ± 0.01. Besides, for the setting “read-out: EC50”, the 50% effective concentration (EC50) is 2.7 ± 0.29 µM.
As for `C=C(C)[C@@H]1CC=C(/C=N/O)CC1` [Perillartine, perillartine], the “R1 = Variant EC50/WT EC50” value amounted to 3.0 and the “Max ΔF/F0” value came out at 1.31 ± 0.21. Moreover, the EC50 (read-out: EC50) came out at 41.1 ± 19.4 µM.
Turning to `C=C1C[C@@]23CC[C@H]4[C@@](C)(CCC[C@@]4(C)C(=O)O[C@@H]4O[C@H](CO)[C@@H](O)[C@H](O[C@@H]5O[C@H](CO)[C@@H](O)[C@H](O)[C@H]5O)[C@H]4O[C@@H]4O[C@H](CO)[C@@H](O)[C@H](O)[C@H]4O)[C@@H]2CC[C@]1(O[C@@H]1O[C@H](CO)[C@@H](O)[C@H](O[C@@H]2O[C@H](CO)[C@@H](O)[C@H](O)[C@H]2O)[C@H]1O[C@@H]1O[C@H](CO)[C@@H](O)[C@H](O)[C@H]1O)C3` [Rebaudioside M, rebaudioside M], the “R1 = Variant EC50/WT EC50” value is listed as 2.6 and the “Max ΔF/F0” value was 0.38 ± 0.04. The EC50 (read-out: EC50) came out at 103 ± 18 µM.
For `OC[C@H]1O[C@H](O[C@]2(CCl)O[C@H](CCl)[C@@H](O)[C@@H]2O)[C@H](O)[C@@H](O)[C@H]1Cl` [Sucralose], the “R1 = Variant EC50/WT EC50” value was 2.6 and the “Max ΔF/F0” value amounted to 0.11 ± 0.02. Also, the EC50 (read-out: EC50) came to 282 ± 101 µM.
With “brazzein (QDKCKKVYENYPVSKCQLANQCNYDCKLDKHARSGECFYDEKRNLQCICDYCEY; ends and bridges not checked; cysteine pairing not given here; UniProt P56552 1-54, looked up) [sweet-tasting protein obtained by recombinant production using the yeast Pichia pastoris]”, the “R1 = Variant EC50/WT EC50” value is on record as 2.0 and the “Max ΔF/F0” value was 0.68 ± 0.01. Also, the EC50 (brazzein) amounted to 221.5 ± 11.3 mg/L.
As to thaumatin, the “R1 = Variant EC50/WT EC50” value turned out to be 1.6 and the “Max ΔF/F0” value is listed as 0.38 ± 0.01.

B1: thaumatin (protein)
chain: ATFEIVNRCSYTVWAAASKGDAALDAGGRQLNSGESWTINVEPGTKGGKIWARTDCYFDDSGSGICKTGDCGGLLRCKRFGRPPTTLAEFSLNQYGKDYIDISNIKGFNVPMDFSPTTRGCRGVRCAADIVGQCPAKLKAPGGGCNDACTVFQTSEYCCTTGKCGPTEYSRFFKRLCPDAFSYVLDKPTTVTCPGSSNYRVTFCPTA
modifications: Eight disulfides
notes: sweet-tasting plant protein, E957
For the molecule B1, under “read-out: EC50”, the EC50 came to 16.3 ± 0.9 µM.
